{
  "source": "patent US20020098213A1",
  "about": "“USE OF ELLAGIC ACID AND ITS DERIVATIVES IN COSMETICS AND DERMATOLOGY” (priority 1997, published 2002)",
  "key": {"[1]": {"test_system": "collagen VII in a culture of normal human keratinocytes", "assay": "ELISA of collagen VII in supernatants of normal human keratinocyte cultures", "assay_type": "cell-based", "conditions": "ellagic acid 0.5 μg/ml; for RODC for 72 h of incubation: reduced optical density corrected to 100 μg cellular proteins; for A for 72 h of incubation (activity on the proportion of collagen VII): relative to control culture"}, "[2]": {"test_system": "normal human keratinocytes", "assay": "XTT viability test and microscopic observation of the cells", "assay_type": "cell-based", "conditions": "test concentration 0.5 μg per ml; plate treated in parallel", "experimental": "The cells are inoculated in a 96-well culture plate at a rate of 25,000 NHK per well in SFMc. After incubation for 24 h, which is necessary for good adhesion of the cells, the medium is replaced with SFMc diluted to 2% to limit the proliferation of the keratinocytes during the test. The test concentration of ellagic acid is 0.5 microgram per ml of test medium, which is obtained immediately beforehand from a stock solution containing 0.5 mg of ellagic acid per ml of DMSO. The final concentration of DMSO in the test medium is therefore 0.1% V/Vfinal. This concentration is not toxic to the cells. The control consists of SFMc test medium diluted to 2%, to which 0.1% V/V of DMSO has been added. Six cultures are prepared for the test product and six for the control experiment.\nA plate treated in parallel is used for the XTT viability test with the XTT kit from Boehringer, reference 146 50 15, in order to measure the mitochondrial dehydrogenase activity of the viable cells."}},
  "data": [
    {"smiles": "O=c1oc2c(O)c(O)cc3c(=O)oc4c(O)c(O)cc1c4c23", "note": "[Ellagic acid, 2,3,7,8-tetrahydroxy(1)-benzopyrano-pyrano (5,4,3-cde)(1)benzopyran-5,10-dione]", "values": [
      {"measurement": "RODC for 72 h of incubation", "setting": "[1]; NHK 1106P1 (face-lift)", "result": "1.563 ± 0.240"},
      {"measurement": "A for 72 h of incubation (activity on the proportion of collagen VII)", "setting": "[1]; NHK 1106P1 (face-lift)", "result": "+64%"},
      {"measurement": "RODC for 72 h of incubation", "setting": "[1]; NHK 1124P2 (face-lift)", "result": "1.098 ± 0.100"},
      {"measurement": "A for 72 h of incubation (activity on the proportion of collagen VII)", "setting": "[1]; NHK 1124P2 (face-lift)", "result": "+42%"},
      {"measurement": "proportion of collagen VII present in the culture media", "setting": "[1]; both strains", "result": "large and significant increase"},
      {"measurement": "viability (mitochondrial dehydrogenase activity of viable cells, XTT; microscopic observation)", "setting": "[2]", "result": "No significant drop in viability"}
    ]}
  ]
}
